Read-outs that look alike come from different tables or passages of the source.
Key:
Test in all cases: SelectScreen Kinase Profiling, single point inhibition and IC50 for off-target kinases
Type in all cases: biochemical
off-target kinases [1] = biological target: off-target kinases (Homo sapiens, UniProt P11362); settings: FGFR1, ZLYTE, ATP Km app
off-target kinases [2] = biological target: off-target kinases (Homo sapiens, UniProt P00519, G250E); settings: ABL1 G250E, ATP Km app, ZLYTE
off-target kinases [3] = biological target: off-target kinases (Homo sapiens, UniProt P15056); settings: BRAF; for inhibition: LanthaScreen Binding
Sequence of off-target kinases (Homo sapiens, UniProt P15056) (P15056 whole entry): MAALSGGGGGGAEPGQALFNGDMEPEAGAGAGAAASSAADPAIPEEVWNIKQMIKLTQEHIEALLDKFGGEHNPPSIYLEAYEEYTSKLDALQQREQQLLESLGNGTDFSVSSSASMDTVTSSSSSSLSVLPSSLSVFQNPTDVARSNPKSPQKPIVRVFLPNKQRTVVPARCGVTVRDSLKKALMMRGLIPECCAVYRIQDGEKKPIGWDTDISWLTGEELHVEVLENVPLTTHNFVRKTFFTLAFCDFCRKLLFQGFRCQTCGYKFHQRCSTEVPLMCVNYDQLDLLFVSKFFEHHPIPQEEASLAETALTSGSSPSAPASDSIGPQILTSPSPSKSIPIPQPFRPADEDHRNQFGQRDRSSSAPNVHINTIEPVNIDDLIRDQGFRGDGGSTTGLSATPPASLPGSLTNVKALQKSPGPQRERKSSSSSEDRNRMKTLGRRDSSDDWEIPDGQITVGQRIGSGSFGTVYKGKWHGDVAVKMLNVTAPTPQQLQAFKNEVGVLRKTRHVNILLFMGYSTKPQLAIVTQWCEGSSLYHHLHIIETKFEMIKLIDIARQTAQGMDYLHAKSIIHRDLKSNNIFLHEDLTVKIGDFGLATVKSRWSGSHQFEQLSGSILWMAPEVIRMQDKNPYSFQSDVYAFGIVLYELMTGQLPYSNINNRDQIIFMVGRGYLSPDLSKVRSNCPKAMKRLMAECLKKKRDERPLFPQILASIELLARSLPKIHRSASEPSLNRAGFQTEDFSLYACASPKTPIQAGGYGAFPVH

off-target kinases [4] = biological target: off-target kinases (Homo sapiens, UniProt P00519, M351T); settings: ABL1 M351T, LanthaScreen Binding
off-target kinases [5] = biological target: off-target kinases (Homo sapiens, UniProt Q92918); settings: MAP4K1 (HPK1), LanthaScreen Binding
Sequence of off-target kinases (Homo sapiens, UniProt Q92918) (Q92918 whole entry): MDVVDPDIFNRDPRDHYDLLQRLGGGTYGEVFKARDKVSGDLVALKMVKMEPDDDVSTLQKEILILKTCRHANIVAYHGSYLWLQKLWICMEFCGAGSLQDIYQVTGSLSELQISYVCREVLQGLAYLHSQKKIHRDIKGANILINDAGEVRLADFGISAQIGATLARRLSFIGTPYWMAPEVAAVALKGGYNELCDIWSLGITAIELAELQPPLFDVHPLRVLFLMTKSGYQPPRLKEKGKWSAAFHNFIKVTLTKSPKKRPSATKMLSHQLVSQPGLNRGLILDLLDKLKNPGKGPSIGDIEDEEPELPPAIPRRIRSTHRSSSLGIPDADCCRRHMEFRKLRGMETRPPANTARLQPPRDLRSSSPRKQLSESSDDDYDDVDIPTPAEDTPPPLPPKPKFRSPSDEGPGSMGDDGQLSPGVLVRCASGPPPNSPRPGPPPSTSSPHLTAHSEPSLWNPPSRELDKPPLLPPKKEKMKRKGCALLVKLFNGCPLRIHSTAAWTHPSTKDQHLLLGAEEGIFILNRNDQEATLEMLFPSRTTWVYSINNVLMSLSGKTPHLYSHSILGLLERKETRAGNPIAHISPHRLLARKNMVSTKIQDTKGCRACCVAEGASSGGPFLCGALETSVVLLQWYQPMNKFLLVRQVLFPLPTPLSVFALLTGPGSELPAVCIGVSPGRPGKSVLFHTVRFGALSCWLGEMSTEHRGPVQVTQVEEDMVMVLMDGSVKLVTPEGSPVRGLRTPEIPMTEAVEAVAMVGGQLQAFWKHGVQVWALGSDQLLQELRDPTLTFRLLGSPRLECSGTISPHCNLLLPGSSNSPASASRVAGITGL

off-target kinases [6] = biological target: T1, off-target kinases (Homo sapiens, UniProt O14920); settings: IKBKB (IKK beta), ATP Km app, ZLYTE
T1 sequence (O14920 1-756): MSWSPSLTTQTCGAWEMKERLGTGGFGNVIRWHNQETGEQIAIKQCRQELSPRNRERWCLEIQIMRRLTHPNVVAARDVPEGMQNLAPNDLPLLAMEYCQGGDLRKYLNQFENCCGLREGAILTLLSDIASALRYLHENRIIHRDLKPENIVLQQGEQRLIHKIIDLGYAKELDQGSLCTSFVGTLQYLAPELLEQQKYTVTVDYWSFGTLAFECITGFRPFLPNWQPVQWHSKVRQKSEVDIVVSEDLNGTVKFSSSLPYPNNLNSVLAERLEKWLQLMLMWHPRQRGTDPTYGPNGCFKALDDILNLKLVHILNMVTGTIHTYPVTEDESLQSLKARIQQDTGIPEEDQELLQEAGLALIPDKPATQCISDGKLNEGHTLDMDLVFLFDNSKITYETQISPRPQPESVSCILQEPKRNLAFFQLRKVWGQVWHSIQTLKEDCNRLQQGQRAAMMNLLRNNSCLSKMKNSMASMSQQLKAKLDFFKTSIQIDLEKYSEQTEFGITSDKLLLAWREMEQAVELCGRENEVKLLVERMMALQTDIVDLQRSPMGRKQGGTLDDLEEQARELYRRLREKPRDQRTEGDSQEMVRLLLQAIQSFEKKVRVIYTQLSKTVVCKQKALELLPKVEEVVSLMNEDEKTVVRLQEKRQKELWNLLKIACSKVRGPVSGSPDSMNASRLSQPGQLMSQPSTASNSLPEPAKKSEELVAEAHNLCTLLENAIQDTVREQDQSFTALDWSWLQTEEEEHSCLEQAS

off-target kinases [7] = biological target: off-target kinases (Homo sapiens, UniProt Q9P1W9); settings: PIM2, ZLYTE, ATP Km app
Sequence of off-target kinases (Homo sapiens, UniProt Q9P1W9) (Q9P1W9 whole entry): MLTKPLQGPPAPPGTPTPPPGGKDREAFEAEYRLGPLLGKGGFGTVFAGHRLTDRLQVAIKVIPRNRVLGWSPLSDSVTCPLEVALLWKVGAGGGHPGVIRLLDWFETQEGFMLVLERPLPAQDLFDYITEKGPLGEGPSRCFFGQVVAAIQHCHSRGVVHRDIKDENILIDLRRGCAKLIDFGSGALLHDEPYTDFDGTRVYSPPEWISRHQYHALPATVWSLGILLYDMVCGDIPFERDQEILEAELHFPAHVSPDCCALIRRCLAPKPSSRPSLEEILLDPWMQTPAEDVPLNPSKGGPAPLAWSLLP

off-target kinases [8] = biological target: off-target kinases (Homo sapiens, UniProt P29376); settings: LTK (TYK1), ZLYTE, ATP Km app
Sequence of off-target kinases (Homo sapiens, UniProt P29376) (P29376 17-864): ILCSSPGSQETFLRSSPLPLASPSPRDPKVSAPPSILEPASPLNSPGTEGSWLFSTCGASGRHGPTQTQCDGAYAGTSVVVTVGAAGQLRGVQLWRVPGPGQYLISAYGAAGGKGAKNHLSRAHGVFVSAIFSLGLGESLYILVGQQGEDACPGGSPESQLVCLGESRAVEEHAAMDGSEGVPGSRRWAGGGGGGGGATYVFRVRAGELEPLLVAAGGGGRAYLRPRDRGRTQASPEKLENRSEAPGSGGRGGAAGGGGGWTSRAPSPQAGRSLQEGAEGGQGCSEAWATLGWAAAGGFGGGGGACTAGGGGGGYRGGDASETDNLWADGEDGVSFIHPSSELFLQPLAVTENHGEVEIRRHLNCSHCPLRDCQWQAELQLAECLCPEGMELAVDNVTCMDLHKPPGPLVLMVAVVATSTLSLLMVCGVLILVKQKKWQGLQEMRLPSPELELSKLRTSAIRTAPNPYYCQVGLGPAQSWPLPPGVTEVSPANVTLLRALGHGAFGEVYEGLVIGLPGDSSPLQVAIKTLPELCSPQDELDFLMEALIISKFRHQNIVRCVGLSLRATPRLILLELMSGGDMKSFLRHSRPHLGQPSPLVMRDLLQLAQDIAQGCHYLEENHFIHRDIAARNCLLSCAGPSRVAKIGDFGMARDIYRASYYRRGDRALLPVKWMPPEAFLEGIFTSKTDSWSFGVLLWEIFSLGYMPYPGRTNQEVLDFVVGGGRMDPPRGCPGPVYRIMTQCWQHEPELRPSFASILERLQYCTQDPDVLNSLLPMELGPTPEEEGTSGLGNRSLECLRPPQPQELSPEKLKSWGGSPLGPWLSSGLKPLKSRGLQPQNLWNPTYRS

Sequence of off-target kinases (Homo sapiens, UniProt P11362) (P11362 22-822): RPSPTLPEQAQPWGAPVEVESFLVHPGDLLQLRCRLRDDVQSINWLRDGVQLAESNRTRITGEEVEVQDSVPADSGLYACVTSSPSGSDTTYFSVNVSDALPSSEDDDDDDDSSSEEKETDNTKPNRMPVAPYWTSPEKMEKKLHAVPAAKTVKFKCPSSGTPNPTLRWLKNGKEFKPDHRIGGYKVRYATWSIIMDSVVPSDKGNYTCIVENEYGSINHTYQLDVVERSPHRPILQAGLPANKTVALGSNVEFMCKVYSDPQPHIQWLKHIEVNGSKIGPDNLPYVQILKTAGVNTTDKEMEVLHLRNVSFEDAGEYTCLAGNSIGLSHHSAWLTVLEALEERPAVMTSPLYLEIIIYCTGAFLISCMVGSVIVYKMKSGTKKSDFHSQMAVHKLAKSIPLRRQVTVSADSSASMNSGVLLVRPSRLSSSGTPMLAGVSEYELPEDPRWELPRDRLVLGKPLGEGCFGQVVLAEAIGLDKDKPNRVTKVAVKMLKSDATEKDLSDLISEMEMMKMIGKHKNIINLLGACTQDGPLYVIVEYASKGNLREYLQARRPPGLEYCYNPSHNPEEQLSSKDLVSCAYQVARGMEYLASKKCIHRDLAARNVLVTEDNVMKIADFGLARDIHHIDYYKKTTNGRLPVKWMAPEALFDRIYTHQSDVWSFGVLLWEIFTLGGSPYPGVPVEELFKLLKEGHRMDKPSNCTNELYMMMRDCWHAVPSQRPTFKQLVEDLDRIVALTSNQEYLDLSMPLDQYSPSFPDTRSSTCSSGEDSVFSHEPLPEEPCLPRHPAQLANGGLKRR

N#Cc1cc(-c2ncnc(Nc3ccc(N4CCN(C5COC5)CC4)cc3)n2)ccc1OC1CCOCC1 [Compound 1, 5-(4-((4-(4-(oxetan-3-yl)piperazin-1-yl)phenyl)amino)-1,3,5-triazin-2-yl)-2-((tetrahydro-2H-pyran-4-yl)oxy)benzonitrile]
inhibition (off-target kinases [1]; read-out: % Inhibition 1): -5% | inhibition (off-target kinases [1]; read-out: % Inhibition 2): -2% | inhibition (off-target kinases [1]; read-out: % Inhibition Avg): -3% | inhibition (off-target kinases [2]; read-out: % Inhibition 1): 60% | inhibition (off-target kinases [2]; read-out: % Inhibition 2): 61% | inhibition (off-target kinases [2]; read-out: % Inhibition Avg): 60% | % Inhibition 1 (off-target kinases [3]; Cmpd1 1000 μM, ATP 100, ZLYTE): −18% | % Inhibition 2 (off-target kinases [3]; Cmpd1 1000 μM, ATP 100, ZLYTE): −10% | % Inhibition Avg (off-target kinases [3]; Cmpd1 1000 μM, ATP 100, ZLYTE): −14% | inhibition (off-target kinases [3]; read-out: % Inhibition 1): 44% | inhibition (off-target kinases [3]; read-out: % Inhibition 2): 47% | inhibition (off-target kinases [3]; read-out: % Inhibition Avg): 46% | inhibition (off-target kinases [4]; read-out: % Inhibition 1): 65% | inhibition (off-target kinases [4]; read-out: % Inhibition 2): 69% | inhibition (off-target kinases [4]; read-out: % Inhibition Avg): 67% | inhibition (off-target kinases [5]; read-out: % Inhibition 1): 59% | inhibition (off-target kinases [5]; read-out: % Inhibition 2): 55% | inhibition (off-target kinases [5]; read-out: % Inhibition Avg): 57% | inhibition (off-target kinases [6]; read-out: % Inhibition 1): 52% | inhibition (off-target kinases [6]; read-out: % Inhibition 2): 39% | inhibition (off-target kinases [6]; read-out: % Inhibition Avg): 45% | inhibition (off-target kinases [7]; read-out: % Inhibition 1): -1% | inhibition (off-target kinases [7]; read-out: % Inhibition 2): 7% | inhibition (off-target kinases [7]; read-out: % Inhibition Avg): 3% | inhibition (off-target kinases [8]; read-out: % Inhibition 1): 5% | inhibition (off-target kinases [8]; read-out: % Inhibition 2): 7% | inhibition (off-target kinases [8]; read-out: % Inhibition Avg): 6%

Source: patent US11572590B2, “Methods for evaluating tumor cell spheroids using 3D microfluidic cell culture device” (Dana-Farber Cancer Institute, Inc., priority 2017, dated 2023)
